# Activity calls are given as the source filed them.
# Key:
# [1] = molecular target: T1, Rac GTPase-activating protein 1 (Homo sapiens, UniProt Q9H0H5); assay: MgcRacGAP GTPase-activating activity inhibitors, confirmation, biochemical, ADP Hunter fluorescence, primary and confirmatory (AID 624330); assay type: functional
# T1 sequence (Q9H0H5 whole entry): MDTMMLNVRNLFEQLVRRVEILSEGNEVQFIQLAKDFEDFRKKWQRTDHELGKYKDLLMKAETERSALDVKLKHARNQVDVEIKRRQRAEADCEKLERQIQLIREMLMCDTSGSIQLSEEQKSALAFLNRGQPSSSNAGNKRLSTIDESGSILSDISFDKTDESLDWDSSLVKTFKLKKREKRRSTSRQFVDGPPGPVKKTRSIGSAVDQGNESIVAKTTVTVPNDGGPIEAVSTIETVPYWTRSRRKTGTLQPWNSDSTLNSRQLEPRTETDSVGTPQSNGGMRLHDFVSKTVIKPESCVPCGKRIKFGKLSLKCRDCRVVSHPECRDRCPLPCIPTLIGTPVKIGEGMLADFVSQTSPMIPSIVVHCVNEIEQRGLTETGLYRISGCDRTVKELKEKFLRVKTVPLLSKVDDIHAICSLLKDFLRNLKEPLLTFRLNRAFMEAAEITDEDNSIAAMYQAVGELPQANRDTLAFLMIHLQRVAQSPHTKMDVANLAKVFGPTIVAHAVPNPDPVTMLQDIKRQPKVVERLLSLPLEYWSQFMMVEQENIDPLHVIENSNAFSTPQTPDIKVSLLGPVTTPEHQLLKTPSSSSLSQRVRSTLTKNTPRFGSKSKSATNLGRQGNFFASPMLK
# cells = assay type: functional
# Insulin-degrading enzyme [2] = molecular target: T2, Insulin-degrading enzyme (Homo sapiens, UniProt P14735); assay: activators of recombinant IDE enzyme, dose response, counter-screen for IDE activator project, biochemical, fluorescence polarization (AID 588681)
# T2 sequence (P14735 whole entry): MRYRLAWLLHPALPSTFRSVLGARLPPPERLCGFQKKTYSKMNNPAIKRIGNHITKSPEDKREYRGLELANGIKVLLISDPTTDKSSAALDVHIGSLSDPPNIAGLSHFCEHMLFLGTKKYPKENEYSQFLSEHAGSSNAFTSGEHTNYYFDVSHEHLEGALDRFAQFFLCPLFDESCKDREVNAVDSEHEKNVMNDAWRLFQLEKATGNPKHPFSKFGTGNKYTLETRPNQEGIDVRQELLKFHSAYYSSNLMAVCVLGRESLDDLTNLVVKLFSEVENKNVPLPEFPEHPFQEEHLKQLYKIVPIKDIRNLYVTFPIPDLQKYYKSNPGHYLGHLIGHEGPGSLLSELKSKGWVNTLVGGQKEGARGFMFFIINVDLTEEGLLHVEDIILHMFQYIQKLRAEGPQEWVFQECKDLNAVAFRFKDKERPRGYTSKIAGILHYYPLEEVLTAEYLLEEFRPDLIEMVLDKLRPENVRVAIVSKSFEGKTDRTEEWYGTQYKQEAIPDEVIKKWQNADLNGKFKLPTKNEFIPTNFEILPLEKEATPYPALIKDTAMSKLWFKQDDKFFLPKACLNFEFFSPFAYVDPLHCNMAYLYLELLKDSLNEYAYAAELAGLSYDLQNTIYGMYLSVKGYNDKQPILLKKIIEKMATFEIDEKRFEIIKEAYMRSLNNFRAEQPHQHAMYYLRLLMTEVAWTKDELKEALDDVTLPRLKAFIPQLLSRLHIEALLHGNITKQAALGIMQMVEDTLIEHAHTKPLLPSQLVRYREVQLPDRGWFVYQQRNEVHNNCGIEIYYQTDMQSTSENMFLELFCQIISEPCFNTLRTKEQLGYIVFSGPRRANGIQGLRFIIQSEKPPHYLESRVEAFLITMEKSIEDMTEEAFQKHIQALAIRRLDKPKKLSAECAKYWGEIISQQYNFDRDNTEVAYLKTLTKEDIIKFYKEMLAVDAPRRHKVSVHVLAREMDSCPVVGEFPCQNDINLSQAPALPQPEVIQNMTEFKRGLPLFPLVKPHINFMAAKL
# HEK293 [3] = assay: HEK cell cytotoxicity by LDH release, dose response, cytotoxicity control for IDE activator project, fluorescence, HEK cells (AID 588440); assay type: functional, cell-based; settings: Homo sapiens;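 note: cytotoxicity by LDH release measuring loss of membrane integrity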
# Large T antigen = Large T antigen (Simian virus 40, UniProt P03070); assay type: functional, Betapolyomavirus macacae;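 note: Confirmatory-stage PubChem screen for compounds that inhibit SV40 T antigen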
# HEK293 [4] = assay: optical interference in Abeta FP readout, dose response, artefact control for IDE activator project, biochemical, fluorescence polarization (AID 588442); assay type: functional, cell-based; settings: Homo sapiens
# Insulin-degrading enzyme [5] = molecular target: T2, Insulin-degrading enzyme; assay: activators of endogenous IDE in HEK cells, dose response, cell-based, fluorescence polarization (AID 588439); assay type: functional
# [6] = molecular target: T3, High affinity choline transporter 1 (Homo sapiens, UniProt Q9GZV3); assay: CHT inhibitors, dose response, cell-based, 5-point CRC, membrane potential dye (AID 504840); assay type: functional
# T3 sequence (Q9GZV3 whole entry): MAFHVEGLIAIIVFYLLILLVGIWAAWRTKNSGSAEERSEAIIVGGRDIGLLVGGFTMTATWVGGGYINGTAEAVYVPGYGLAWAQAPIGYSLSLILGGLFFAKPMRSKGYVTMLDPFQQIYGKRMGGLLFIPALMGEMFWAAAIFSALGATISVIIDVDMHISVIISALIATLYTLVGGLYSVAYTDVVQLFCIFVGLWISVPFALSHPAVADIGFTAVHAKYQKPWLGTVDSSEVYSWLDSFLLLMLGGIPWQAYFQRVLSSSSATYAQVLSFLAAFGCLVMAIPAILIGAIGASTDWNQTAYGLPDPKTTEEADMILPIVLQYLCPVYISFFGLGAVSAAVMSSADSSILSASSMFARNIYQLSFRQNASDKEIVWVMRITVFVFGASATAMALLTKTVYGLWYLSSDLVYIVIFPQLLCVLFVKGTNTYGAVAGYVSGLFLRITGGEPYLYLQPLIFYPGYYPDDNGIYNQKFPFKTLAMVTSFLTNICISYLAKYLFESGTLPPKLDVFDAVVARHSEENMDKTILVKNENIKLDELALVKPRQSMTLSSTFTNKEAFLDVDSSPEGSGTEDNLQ
# [7] = molecular target: Mitogen-activated protein kinase 10 (Homo sapiens, UniProt P53779); assay: Dose response biochemical screening assay for inhibitors of c-Jun N-Terminal Kinase 3 (JNK3). [Related pubchem assays: 746 ]
# [8] = molecular target: T3, High affinity choline transporter 1; assay: CHT inhibitors, dose response, cell-based, 10-point CRC, membrane potential dye (AID 588401); assay type: functional;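 note: membrane potential dye fluorescence of choline-evoked depolarization via CHT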
# [9] = molecular target: Ras and Rab interactor 1/Tyrosine-protein kinase ABL1 (Homo sapiens, UniProt P00519+Q13671); assay type: functional;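 note: biochemical TR-FRET dose-response test measuring inhibition of binding between Rin1 and Abl proteins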
# Cytochrome P450 2D6 = Cytochrome P450 2D6 (Homo sapiens, UniProt P10635);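 note: CYP2D6 member of a cytochrome P450 panel assay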
# Cytochrome P450 2C9 = Cytochrome P450 2C9 (Homo sapiens, UniProt P11712)
# Cytochrome P450 3A4 = Cytochrome P450 3A4 (Homo sapiens, UniProt P08684);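 note: CYP3A4 tested as one member of a cytochrome P450 panel screen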
# [10] = molecular target: Disintegrin and metalloproteinase domain-containing protein 17 (Homo sapiens, UniProt P78536); assay: ADAM17 protease inhibitors, dose response, counter-screen for ADAM10 exosite inhibitor project, biochemical, quenched FRET substrate (AID 743253)
# Streptokinase A = molecular target: T4, Streptokinase A (Streptococcus pyogenes serotype M1, UniProt P10520); assay: S. pyogenes streptokinase expression inhibitors, potency, dose response, plasminogen activation absorbance, OD405 (AID 1914); assay type: functional, Streptococcus pyogenes M1 GAS;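 note: secreted streptokinase activity via plasminogen activation per viability signal from cell pellet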
# T4 sequence (P10520 whole entry): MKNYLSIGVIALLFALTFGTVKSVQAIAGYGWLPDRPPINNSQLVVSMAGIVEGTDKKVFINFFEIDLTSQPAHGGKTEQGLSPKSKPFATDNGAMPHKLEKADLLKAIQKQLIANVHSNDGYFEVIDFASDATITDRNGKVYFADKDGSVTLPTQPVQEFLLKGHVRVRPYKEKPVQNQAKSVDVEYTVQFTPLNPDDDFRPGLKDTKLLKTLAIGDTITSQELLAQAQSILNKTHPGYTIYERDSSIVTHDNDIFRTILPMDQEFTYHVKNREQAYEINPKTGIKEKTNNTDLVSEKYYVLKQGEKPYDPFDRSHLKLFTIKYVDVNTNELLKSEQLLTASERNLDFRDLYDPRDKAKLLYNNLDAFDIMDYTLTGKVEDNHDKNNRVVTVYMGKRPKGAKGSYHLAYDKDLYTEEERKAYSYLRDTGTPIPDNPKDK
# Streptococcus = assay: Group A Streptococcus viability loss, dose response, counter-screen for streptokinase expression inhibitor project, luminescence, BacTiterGlo (AID 1915); assay type: functional, organism-based;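 note: potency for reduction of bacterial viability or growth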
# [11] = molecular target: G-protein coupled receptor 55 (Homo sapiens, UniProt Q9Y2T6); assay: GPR55 agonists via beta-arrestin recruitment, primary screen, imaging, U2OS cells, beta-arrestin-GFP redistribution (AID 1961); assay type: functional
# [12] = system: Streptococcus sp. 'group A'; assay: growth inhibition of control SK(-) GAS strain, dose response, counter-screen for streptokinase expression inhibitor project, luminescence, kanamycin, BacTiterGlo, confirmation (AID 1900); assay type: functional, organism-based
# [13] = Luminescence Cell-Based Dose Retest to Confirm Inhibitors of Cancer Stem Cells. [Related pubchem assays (depositor defined):AID2717, AID2721]; assay type: functional; settings: Homo sapiens
# [14] = cytotoxicity toward NIH3T3 fibroblasts, dose response, counter-screen, cell-based, ATP luminescence, mouse fibroblasts (AID 2010); assay type: functional;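 note: cells exposed to compound for about 90 hours before reading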
# [15] = molecular target: T5, Polyadenylate-binding protein 1 (Homo sapiens, UniProt P11940); assay: PABP1 MLLE–PAM2 interaction inhibitors, dose response, miRNA deadenylation inhibitor project, biochemical, fluorescence polarization, Cy5-PAM2 peptide, secondary (AID 602260); assay type: functional; settings: read-out: IC50_Mean
# [16] = molecular target: Latent membrane protein 1 (Human herpesvirus 4 (strain B95-8), UniProt P03230); assay: TES1-eGFP NF-kB reporter inhibition versus Tet-On dsRED, dose response, selectivity assay for LMP1 NF-kB inhibitor project, imaging, HEK293T, dual-color eGFP/dsRED, cherry-picks (AID 588398); assay type: functional, cell-based
# Coagulation factor XII = molecular target: T6, Coagulation factor XII (Homo sapiens, UniProt P00748); assay type: functional;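 note: activated factor XIIa alpha cleaving a fluorogenic AMC peptide substrate; inhibitor potency from loss of enzyme activity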
# T6 sequence (P00748 whole entry): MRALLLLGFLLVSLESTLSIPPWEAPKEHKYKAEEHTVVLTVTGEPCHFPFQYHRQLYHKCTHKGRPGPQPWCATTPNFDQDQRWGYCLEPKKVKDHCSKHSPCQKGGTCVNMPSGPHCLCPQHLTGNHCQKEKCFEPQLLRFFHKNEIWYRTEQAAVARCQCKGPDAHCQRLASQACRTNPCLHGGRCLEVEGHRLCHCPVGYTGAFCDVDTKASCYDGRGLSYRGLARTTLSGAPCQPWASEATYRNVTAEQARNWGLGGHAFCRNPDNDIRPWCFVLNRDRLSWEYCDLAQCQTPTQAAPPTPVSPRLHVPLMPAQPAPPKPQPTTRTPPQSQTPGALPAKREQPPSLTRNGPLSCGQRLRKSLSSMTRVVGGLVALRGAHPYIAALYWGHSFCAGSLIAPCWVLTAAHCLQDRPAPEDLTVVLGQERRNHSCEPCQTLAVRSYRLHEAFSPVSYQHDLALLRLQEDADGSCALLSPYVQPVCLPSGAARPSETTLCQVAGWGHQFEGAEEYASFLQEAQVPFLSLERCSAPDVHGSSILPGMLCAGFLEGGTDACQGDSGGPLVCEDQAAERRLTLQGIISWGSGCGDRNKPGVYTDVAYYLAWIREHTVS
# [17] = molecular target: T5, Polyadenylate-binding protein 1; assay: PABP1 MLLE–PAM2 binding inhibitor potency, dose response, biochemical, fluorescence polarization, FITC-PAM2 peptide (AID 602259); assay type: functional; settings: read-out: IC50_Mean
# [18] = inhibitors of intracellular T. cruzi replication, confirmation, NIH3T3 host cells, beta-gal luminescence (AID 2044); assay type: functional, cell-based;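 note: intracellular parasites grown in NIH/3T3 mouse fibroblasts as host cells; luminescent beta-galactosidase reporter signal from transgenic T. cruzi replicating inside host cells; inhibitors lower the luminescence signal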
# T5 sequence (P11940 whole entry): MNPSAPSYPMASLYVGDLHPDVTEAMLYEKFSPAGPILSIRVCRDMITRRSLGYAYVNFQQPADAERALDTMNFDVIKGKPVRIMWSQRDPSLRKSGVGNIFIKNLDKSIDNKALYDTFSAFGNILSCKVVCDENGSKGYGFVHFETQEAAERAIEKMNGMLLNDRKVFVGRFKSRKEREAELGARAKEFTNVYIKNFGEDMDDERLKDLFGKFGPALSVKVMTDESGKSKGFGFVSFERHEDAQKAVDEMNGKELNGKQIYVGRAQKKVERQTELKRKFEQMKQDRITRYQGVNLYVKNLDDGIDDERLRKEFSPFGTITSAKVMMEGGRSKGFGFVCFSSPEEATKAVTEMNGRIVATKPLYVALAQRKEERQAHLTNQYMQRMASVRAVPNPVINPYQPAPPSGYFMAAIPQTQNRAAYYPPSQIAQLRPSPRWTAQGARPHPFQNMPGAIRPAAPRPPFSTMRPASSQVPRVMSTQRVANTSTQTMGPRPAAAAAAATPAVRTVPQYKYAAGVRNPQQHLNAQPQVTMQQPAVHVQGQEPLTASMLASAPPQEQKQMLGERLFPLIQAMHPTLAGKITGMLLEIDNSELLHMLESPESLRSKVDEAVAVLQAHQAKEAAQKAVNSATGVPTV
# Sequence of Latent membrane protein 1 (P03230 whole entry): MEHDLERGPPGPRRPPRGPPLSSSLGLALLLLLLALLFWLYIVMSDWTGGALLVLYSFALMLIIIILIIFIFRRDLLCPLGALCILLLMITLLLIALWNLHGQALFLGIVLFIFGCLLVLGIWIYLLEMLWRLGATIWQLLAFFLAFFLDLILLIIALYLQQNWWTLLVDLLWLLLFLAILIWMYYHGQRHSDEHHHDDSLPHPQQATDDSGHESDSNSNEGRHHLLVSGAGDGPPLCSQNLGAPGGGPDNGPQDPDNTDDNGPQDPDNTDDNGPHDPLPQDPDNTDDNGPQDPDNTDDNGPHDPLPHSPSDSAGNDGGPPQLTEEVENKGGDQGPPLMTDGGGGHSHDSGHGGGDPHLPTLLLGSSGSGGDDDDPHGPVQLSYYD
# Sequence of Cytochrome P450 2D6 (P10635 whole entry): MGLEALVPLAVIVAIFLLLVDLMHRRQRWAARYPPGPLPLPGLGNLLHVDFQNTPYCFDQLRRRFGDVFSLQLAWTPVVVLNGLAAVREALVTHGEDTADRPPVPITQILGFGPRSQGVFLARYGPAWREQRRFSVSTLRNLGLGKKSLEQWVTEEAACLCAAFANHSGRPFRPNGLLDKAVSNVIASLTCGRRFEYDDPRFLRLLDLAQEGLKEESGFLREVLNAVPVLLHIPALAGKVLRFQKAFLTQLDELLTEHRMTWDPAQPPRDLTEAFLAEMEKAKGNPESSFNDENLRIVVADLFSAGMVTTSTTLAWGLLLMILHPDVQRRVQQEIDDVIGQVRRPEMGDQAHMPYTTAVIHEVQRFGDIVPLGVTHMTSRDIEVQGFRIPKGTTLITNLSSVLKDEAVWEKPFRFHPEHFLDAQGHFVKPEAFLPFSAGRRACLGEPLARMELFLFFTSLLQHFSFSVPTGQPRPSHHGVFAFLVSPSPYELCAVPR
# Sequence of Ras and Rab interactor 1/Tyrosine-protein kinase ABL1 (P00519 whole entry): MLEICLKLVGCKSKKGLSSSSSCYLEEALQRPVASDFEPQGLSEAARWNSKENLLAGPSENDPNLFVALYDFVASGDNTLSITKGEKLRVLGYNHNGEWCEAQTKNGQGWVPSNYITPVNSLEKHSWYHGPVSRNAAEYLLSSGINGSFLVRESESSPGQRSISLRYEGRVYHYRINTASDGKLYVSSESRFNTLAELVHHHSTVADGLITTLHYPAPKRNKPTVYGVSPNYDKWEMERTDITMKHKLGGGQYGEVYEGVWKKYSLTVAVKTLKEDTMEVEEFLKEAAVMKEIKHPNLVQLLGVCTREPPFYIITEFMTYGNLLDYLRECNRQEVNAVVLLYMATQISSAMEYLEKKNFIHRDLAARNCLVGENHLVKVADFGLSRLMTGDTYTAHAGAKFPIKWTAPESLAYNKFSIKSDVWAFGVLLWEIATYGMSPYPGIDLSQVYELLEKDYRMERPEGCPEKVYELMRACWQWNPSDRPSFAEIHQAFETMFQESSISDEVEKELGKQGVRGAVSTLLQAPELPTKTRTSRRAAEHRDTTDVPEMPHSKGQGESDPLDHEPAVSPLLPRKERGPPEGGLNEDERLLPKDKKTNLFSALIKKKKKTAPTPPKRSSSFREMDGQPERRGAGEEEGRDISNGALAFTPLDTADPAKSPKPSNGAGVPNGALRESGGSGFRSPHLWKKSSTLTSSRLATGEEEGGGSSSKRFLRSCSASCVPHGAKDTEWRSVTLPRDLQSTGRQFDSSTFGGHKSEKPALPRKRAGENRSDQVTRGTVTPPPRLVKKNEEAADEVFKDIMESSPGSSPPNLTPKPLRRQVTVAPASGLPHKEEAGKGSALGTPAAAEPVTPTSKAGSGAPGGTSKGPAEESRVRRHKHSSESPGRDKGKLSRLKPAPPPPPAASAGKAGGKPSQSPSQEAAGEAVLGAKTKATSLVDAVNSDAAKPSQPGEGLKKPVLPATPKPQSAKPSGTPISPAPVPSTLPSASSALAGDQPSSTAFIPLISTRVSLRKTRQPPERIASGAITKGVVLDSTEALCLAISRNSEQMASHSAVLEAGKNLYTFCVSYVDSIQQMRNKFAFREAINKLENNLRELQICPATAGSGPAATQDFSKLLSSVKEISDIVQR
# Sequence of Ras and Rab interactor 1/Tyrosine-protein kinase ABL1 (Q13671 whole entry): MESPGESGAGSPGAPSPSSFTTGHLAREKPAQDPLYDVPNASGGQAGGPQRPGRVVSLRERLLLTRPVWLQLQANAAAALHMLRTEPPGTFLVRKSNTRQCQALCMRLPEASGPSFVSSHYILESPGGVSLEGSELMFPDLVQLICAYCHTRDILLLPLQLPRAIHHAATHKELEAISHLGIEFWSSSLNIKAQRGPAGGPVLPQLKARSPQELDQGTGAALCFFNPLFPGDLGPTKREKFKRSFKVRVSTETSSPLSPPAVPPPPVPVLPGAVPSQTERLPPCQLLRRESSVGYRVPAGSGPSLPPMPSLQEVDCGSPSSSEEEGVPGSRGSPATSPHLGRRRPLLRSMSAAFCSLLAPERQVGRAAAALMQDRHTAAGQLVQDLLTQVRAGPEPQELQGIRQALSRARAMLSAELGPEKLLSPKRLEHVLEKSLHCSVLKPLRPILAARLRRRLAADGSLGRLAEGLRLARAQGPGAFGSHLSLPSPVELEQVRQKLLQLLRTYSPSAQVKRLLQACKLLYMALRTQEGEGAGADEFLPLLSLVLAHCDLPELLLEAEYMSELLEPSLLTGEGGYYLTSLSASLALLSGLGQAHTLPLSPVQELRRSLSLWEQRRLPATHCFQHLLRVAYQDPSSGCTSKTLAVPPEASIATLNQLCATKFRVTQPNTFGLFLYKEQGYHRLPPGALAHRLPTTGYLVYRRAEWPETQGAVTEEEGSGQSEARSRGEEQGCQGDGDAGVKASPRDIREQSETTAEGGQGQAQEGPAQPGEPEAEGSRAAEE
# Sequence of Cytochrome P450 3A4 (P08684 whole entry, the tested form may be a part): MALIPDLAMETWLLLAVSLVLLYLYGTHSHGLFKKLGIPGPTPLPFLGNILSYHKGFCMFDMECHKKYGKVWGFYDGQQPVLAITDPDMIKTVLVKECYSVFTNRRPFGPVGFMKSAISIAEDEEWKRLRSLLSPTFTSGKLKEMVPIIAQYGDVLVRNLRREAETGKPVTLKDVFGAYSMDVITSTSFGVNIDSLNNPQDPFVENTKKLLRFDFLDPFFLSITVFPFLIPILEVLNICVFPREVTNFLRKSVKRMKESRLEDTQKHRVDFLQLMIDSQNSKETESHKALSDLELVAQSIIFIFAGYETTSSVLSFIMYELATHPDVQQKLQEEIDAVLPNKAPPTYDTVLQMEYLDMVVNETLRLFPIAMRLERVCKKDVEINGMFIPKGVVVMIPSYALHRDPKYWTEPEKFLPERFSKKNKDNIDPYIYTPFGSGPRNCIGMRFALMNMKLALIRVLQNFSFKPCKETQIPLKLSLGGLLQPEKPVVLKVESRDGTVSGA
# Sequence of Disintegrin and metalloproteinase domain-containing protein 17 (P78536 whole entry, the tested form may be a part): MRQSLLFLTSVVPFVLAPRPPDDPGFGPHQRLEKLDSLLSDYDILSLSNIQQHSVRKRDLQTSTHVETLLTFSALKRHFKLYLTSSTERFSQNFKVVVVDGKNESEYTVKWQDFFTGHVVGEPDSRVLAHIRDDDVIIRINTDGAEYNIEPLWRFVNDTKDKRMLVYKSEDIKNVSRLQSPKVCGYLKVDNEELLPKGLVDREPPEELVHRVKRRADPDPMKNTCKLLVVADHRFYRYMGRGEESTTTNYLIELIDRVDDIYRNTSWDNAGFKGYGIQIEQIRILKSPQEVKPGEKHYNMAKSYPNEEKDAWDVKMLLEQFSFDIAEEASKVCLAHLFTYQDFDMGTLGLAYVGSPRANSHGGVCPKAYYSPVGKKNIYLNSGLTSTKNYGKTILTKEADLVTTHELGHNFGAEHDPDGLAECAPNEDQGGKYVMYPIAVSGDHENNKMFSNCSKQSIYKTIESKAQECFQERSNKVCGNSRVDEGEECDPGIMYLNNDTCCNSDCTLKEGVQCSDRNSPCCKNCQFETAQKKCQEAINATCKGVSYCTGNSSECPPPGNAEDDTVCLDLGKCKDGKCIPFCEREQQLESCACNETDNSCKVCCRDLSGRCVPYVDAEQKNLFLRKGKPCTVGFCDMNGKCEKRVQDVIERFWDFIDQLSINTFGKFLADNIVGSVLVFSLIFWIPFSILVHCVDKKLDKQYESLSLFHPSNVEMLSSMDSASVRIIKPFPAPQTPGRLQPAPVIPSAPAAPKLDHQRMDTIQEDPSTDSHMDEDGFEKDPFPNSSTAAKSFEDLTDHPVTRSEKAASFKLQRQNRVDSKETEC
structure (smiles),measurement,setting,value
C/C(CC(=O)Nc1ccc(N(C)C)cc1)=N\NC(=O)c1ccncc1,IC50,[1],56.8 µM (active)
same,IC50,cells,0.31 µM (active)
same,EC50,Insulin-degrading enzyme [2],26 µM (inactive)
same,IC50,HEK293 [3],> 89.2 µM (inactive)
same,IC50,Large T antigen,13.7 µM (active)
same,EC50,HEK293 [4],> 55.9 µM (inactive)
same,EC50,Insulin-degrading enzyme [5],> 54.7 µM (inactive)
O=C(Nc1cccnc1)c1ccc(COc2ccccc2Br)o1,IC50,[6],3.28 µM (active)
same,IC50,[7],> 93.1 µM (not active)
same,IC50,[8],1.5 µM (active)
COCCNC(=O)c1cc2c3ccccc3n(C)c2s1,IC50,[9],14.6 µM (inactive)
same,AC50,Cytochrome P450 2D6,inconclusive
same,AC50,Cytochrome P450 2C9,inconclusive
same,AC50,Cytochrome P450 3A4,28.2 µM (inconclusive)
C=C(C)COc1ccc(-c2n[nH]cc2Oc2ccc(OC)cc2)c(O)c1,IC50,[10],12 µM (inactive)
same,EC50,Streptokinase A,37.4 µM (active)
same,EC50,Streptococcus,25.8 µM (active)
same,EC50,[11],> 32 µM (inactive)
same,EC50,Insulin-degrading enzyme [2],> 54.7 µM (inactive)
same,IC50,HEK293 [3],31.4 µM (inactive)
same,EC50,[12],6.87 µM (active)
same,AC50,[13],5.47 µM (active)
same,EC50,HEK293 [4],> 54.7 µM (inactive)
same,EC50,Insulin-degrading enzyme [5],20.7 µM (inactive)
Cc1cc(NS(=O)(=O)c2ccc(NC(=O)C(C)Oc3cccc(C)c3C)cc2)nc(C)n1 (configuration not stated),IC50,[6],10 µM (active)
same,IC50,[8],7.23 µM (active)
C=CCn1c(O)c(N=NC(S)=Nc2ccccc2F)c2cc(S(=O)(=O)N3CCOCC3)ccc21,EC50,[14],2.84 µM (active)
same,IC50,[15],> 66 µM (inactive)
same,AC50,[16],38.3 µM (active)
same,IC50,Coagulation factor XII,> 50 µM (inconclusive)
same,IC50,[17],> 66 µM (inactive)
same,EC50,[18],0.495 µM (active)
